These results are taken from patent publication US20110105474A1, “HETEROCYCLIC DERIVATIVES AS HDAC INHIBITORS” (DAC S.r.l., priority 2008, published 2011).

Format in all cases: cell-based
One experiment concerns K562 cells. The experiment can be described thus: Cell growth, CellTiter-Glo Luminescent Cell Viability Assay, K562. The following applies: Homo sapiens, 72 h incubation. An excerpt:
(§1) CellTiter-Glo® Luminescent Cell Viability Assay (Promega) is a homogeneous method of determining the number of viable cells in culture based on quantitation of the present ATP, which indicates the presence of metabolically active cells. The homogeneous assay procedure involves addition of a single reagent (CellTiter-Glo®Reagent) directly to the cells, which leads to cell lysis and generation of a luminescent signal proportional to the amount of the ATP and the number of cells present in culture. The assay relies on the properties of a proprietary thermostable luciferase (Ultra-Glo® recombinant luciferase), which generates a luminescent signal.
(§2) K562, A549 and HCT-116 cells, in exponential growth, were incubated for 72 h with different concentrations of the inhibitors. After 72 h, a volume of CellTiter-Glo® Reagent equal to the volume of cell culture medium was added. The content was mixed for 2 min to induce cell lysis. The luminescence was recorded after further 10 min at RT in order to obtain a stabilized luminescent signal.
(§3) The IC50 was calculated using GraphPad Software.
(§4) IC50 results were allocated to one of 3 ranges as follows: Range A: IC50≦1.0 μM; Range B: from 1.0 to 3.0 μM; Range C: IC50≧3.0 μM.

The next experiment relates to A549 cells. The experiment can be described thus: Cell growth, CellTiter-Glo Luminescent Cell Viability Assay, A549. The following applies: Homo sapiens, 72 h incubation.
Text: as §1, §2, §3, §4

Another experiment concerns HCT-116 cells. Description: Cell growth, CellTiter-Glo Luminescent Cell Viability Assay, HCT-116. The note with it: Homo sapiens, 72 h incubation, read-out: IC50 HCT116.
Text: as §1, §2, §3, §4
A general note: Cellular ATP, detected with luciferase, serves as a proxy for viable cell number.

Structures can show the parent of a compound that is named as a salt. Bounds are passed on as bounds.

One may read the IC50 as the concentration that inhibits the measured activity by half.

As to `O=C(/C=C/c1cccc(/C=C/C(=O)N2CCCC(c3ccccc3)CC2)n1)NO` (racemic) [Example 54, (±)-(E)-N-Hydroxy-3-{6-[(E)-3-oxo-3-(4-phenyl-azepan-1-yl)-propenyl]-pyridin-2-yl}-acrylamide hydrochloride], the figures for the IC50 with K562 cells, in the experiment on A549 cells and with HCT-116 cells were no more than 1 µM, 1 to 3 µM and no more than 1 µM, respectively.

As to `CN1CCN(C(=O)/C=C/c2cccc(/C=C/C(=O)NO)n2)CC1c1ccccc1` (racemic) [Example 63, (±)-(E)-N-Hydroxy-3-{6-[(E)-3-(4-methyl-3-phenyl-piperazin-1-yl)-3-oxo-propenyl]-pyridin-2-yl}-acrylamide hydrochloride], the IC50 is no more than 1 µM with K562 cells, 1 to 3 µM with A549 cells and no more than 1 µM in the experiment on HCT-116 cells.

With `CCN1CCN(C(=O)/C=C/c2cccc(/C=C/C(=O)NO)n2)CC1c1ccccc1` (racemic) [Example 64, (±)-(E)-3-{6-[(E)-3-(4-Ethyl-3-phenyl-piperazin-1-yl)-3-oxo-propenyl]-pyridin-2-yl}-N-hydroxy-acrylamide hydrochloride], the IC50 in the experiment with K562 cells, in the experiment on A549 cells and with HCT-116 cells was no more than 1 µM each time.

Consider `O=C(/C=C/c1cccc(/C=C/C(=O)N2CCN(Cc3ccccc3)C(c3ccccc3)C2)n1)NO` (racemic) [Example 65, (±)-(E)-3-{6-[(E)-3-(4-Benzyl-3-phenyl-piperazin-1-yl)-3-oxo-propenyl]-pyridin-2-yl}-N-hydroxy-acrylamide hydrochloride], for which the IC50 in the experiment on K562 cells, with A549 cells and with HCT-116 cells was 1 to 3 µM in each case.

Regarding `CC(=O)N1CCN(C(=O)/C=C/c2cccc(/C=C/C(=O)NO)n2)CC1c1ccccc1` (racemic) [Example 66, (±)-(E)-3-{6-[(E)-3-(4-Acetyl-3-phenyl-piperazin-1-yl)-3-oxo-propenyl]-pyridin-2-yl}-N-hydroxy-acrylamide hydrochloride], the IC50 in the experiment with K562 cells, in the experiment with A549 cells and in the experiment on HCT-116 cells was no less than 3 µM each time.

Turning to `COc1ccccc1C1CCCN(C(=O)/C=C/c2cccc(/C=C/C(=O)NO)n2)C1` (racemic) [Example 67, (±)-(E)-N-Hydroxy-3-(6-{(E)-3-[3-(2-methoxy-phenyl)-piperidin-1-yl]-3-oxo-propenyl}-pyridin-2-yl)-acrylamide hydrochloride], the results for the IC50 in the experiment on K562 cells, in the experiment on A549 cells and with HCT-116 cells were no more than 1 µM, 1 to 3 µM and no more than 1 µM, respectively.

Turning to `COc1cccc(C2CCCN(C(=O)/C=C/c3cccc(/C=C/C(=O)NO)n3)C2)c1` (racemic) [Example 68, (±)-(E)-N-Hydroxy-3-(6-{(E)-3-[3-(3-methoxy-phenyl)-piperidin-1-yl]-3-oxo-propenyl}-pyridin-2-yl)-acrylamide hydrochloride], the half-maximal inhibitory concentration (IC50) with K562 cells, with A549 cells and in the experiment on HCT-116 cells was no more than 1 µM each time.

Take `COc1ccc(C2CCCN(C(=O)/C=C/c3cccc(/C=C/C(=O)NO)n3)C2)cc1` (racemic) [Example 69, (±)-(E)-N-Hydroxy-3-(6-{(E)-3-[3-(4-methoxy-phenyl)-piperidin-1-yl]-3-oxo-propenyl}-pyridin-2-yl)-acrylamide hydrochloride]: the IC50 with K562 cells, with A549 cells and in the experiment on HCT-116 cells was no more than 1 µM throughout.

Take `O=C(/C=C/c1cccc(/C=C/C(=O)N2CCCC(c3ccccc3C(F)(F)F)C2)n1)NO` (racemic) [Example 70, (±)-(E)-N-Hydroxy-3-(6-{(E)-3-oxo-3-[3-(2-trifluoromethyl-phenyl)-piperidin-1-yl]-propenyl}-pyridin-2-yl)-acrylamide hydrochloride]: the IC50 in the experiment with K562 cells, in the experiment on A549 cells and in the experiment on HCT-116 cells was no more than 1 µM throughout.

With `O=C(/C=C/c1cccc(/C=C/C(=O)N2CCCC(c3cccc(C(F)(F)F)c3)C2)n1)NO` (racemic) [Example 71, (±)-(E)-N-Hydroxy-3-(6-{(E)-3-oxo-3-[3-(3-trifluoromethyl-phenyl)-piperidin-1-yl]-propenyl}-pyridin-2-yl)-acrylamide hydrochloride], the IC50 was no more than 1 µM in the experiment with K562 cells, 1 to 3 µM in the experiment with A549 cells and no more than 1 µM in the experiment with HCT-116 cells.

Consider `O=C(/C=C/c1cccc(/C=C/C(=O)N2CCCC(c3ccc(C(F)(F)F)cc3)C2)n1)NO` (racemic) [Example 72, (±)-(E)-N-Hydroxy-3-(6-{(E)-3-oxo-3-[3-(4-trifluoromethyl-phenyl)-piperidin-1-yl]-propenyl}-pyridin-2-yl)-acrylamide hydrochloride], for which the IC50 was no more than 1 µM with K562 cells, 1 to 3 µM in the experiment on A549 cells and 1 to 3 µM with HCT-116 cells.

As for `Cc1cccc(C2CCCN(C(=O)/C=C/c3cccc(/C=C/C(=O)NO)c3)C2)c1` (racemic) [Example 78, (±)-(E)-N-Hydroxy-3-{3-[(E)-3-oxo-3-(3-m-tolyl-piperidin-1-yl)-propenyl]-phenyl}-acrylamide], the IC50 in the experiment on K562 cells, with A549 cells and with HCT-116 cells was no less than 3 µM in each case.

On to `Cc1ccccc1C1CCCN(C(=O)/C=C/c2cccc(/C=C/C(=O)NO)c2)C1` (racemic) [Example 79, (±)-(E)-N-Hydroxy-3-{3-[(E)-3-oxo-3-(3-o-tolyl-piperidin-1-yl)-propenyl]-phenyl}-acrylamide], for which the IC50 in the experiment on K562 cells, in the experiment with A549 cells and with HCT-116 cells was no less than 3 µM throughout.

As to `Cc1ccc(C2CCCN(C(=O)/C=C/c3cccc(/C=C/C(=O)NO)c3)C2)cc1` (racemic) [Example 80, (±)-(E)-N-Hydroxy-3-{3-[(E)-3-oxo-3-(3-p-tolyl-piperidin-1-yl)-propenyl]-phenyl}-acrylamide], the IC50 with K562 cells, in the experiment with A549 cells and in the experiment on HCT-116 cells was no less than 3 µM each time.

With `O=C(/C=C/c1cccc(/C=C/C(=O)N2CCCC(c3ccccc3)C2)c1)NO` (racemic) [Example 83, (±)-(E)-N-Hydroxy-3-{3-[(E)-3-oxo-3-(3-phenyl-piperidin-1-yl)-propenyl]-phenyl}-acrylamide], the IC50 in the experiment on K562 cells, in the experiment on A549 cells and with HCT-116 cells was no less than 3 µM in each case.

Turning to `O=C(/C=C/c1cccc(/C=C/C(=O)N2CCCC(c3ccc(F)cc3)C2)c1)NO` (racemic) [Example 84, (±)-(E)-3-(3-{(E)-3-[3-(4-Fluoro-phenyl)-piperidin-1-yl]-3-oxo-propenyl}-phenyl)-N-hydroxy-acrylamide], the IC50 in the experiment on K562 cells, in the experiment on A549 cells and in the experiment on HCT-116 cells was no less than 3 µM in each case.

Regarding `O=C(/C=C/c1cccc(/C=C/C(=O)N2CCN(c3ccccc3)CC2)c1)NO` [Example 3, (E)-N-Hydroxy-3-{3-[(E)-3-oxo-3-(4-phenyl-piperazin-1-yl)-propenyl]-phenyl}-acrylamide], the IC50 was no more than 1 µM in the experiment with K562 cells, 1 to 3 µM in the experiment on A549 cells and no more than 1 µM in the experiment with HCT-116 cells.

For the molecule `O=C(/C=C/c1ccc(/C=C/C(=O)N2CCN(c3ccccc3)CC2)cc1)NO` [Example 7, (E)-N-Hydroxy-3-{4-[(E)-3-oxo-3-(4-phenyl-piperazin-1-yl)-propenyl]-phenyl}-acrylamide], the IC50 in the experiment on K562 cells, in the experiment with A549 cells and in the experiment with HCT-116 cells was no less than 3 µM throughout.

Take `O=C(/C=C/c1ccc(/C=C/C(=O)N2CCN(c3ccccc3)CC2)cn1)NO` [Example 11, (E)-N-Hydroxy-3-{5-[(E)-3-oxo-3-(4-phenyl-piperazin-1-yl)-propenyl]-pyridin-2-yl}-acrylamide]: the IC50 is 1 to 3 µM in the experiment with K562 cells, no less than 3 µM with A549 cells and 1 to 3 µM with HCT-116 cells.

As to `O=C(/C=C/c1cccc(/C=C/C(=O)N2CCN(c3ccccc3)CC2)n1)NO` [Example 13, (E)-N-Hydroxy-3-{6-[(E)-3-oxo-3-(4-phenyl-piperazin-1-yl)-propenyl]-pyridin-2-yl}-acrylamide], the IC50 with K562 cells, with A549 cells and with HCT-116 cells was 1 to 3 µM each time.

For the molecule `O=C(/C=C/c1cccc(/C=C/C(=O)N2CCN(c3cccc(Cl)c3)CC2)n1)NO` [Example 15, (E)-3-(6-{(E)-3-[4-(3-Chloro-phenyl)-piperazin-1-yl]-3-oxo-propenyl}-pyridin-2-yl)-N-hydroxy-acrylamide], the IC50 is 1 to 3 µM with K562 cells, no less than 3 µM in the experiment on A549 cells and 1 to 3 µM in the experiment on HCT-116 cells.

On to `O=C(/C=C/c1cccc(/C=C/C(=O)N2CCN(C(=O)c3ccccc3)CC2)n1)NO` [Example 16, (E)-3-{6-[(E)-3-(4-Benzoyl-piperazin-1-yl)-3-oxo-propenyl]-pyridin-2-yl}-N-hydroxy-acrylamide hydrochloride], for which the IC50 in the experiment on K562 cells, with A549 cells and in the experiment on HCT-116 cells was no less than 3 µM each time.

Consider `O=C(/C=C/c1cccc(/C=C/C(=O)N2CCC(Cc3ccccc3)CC2)n1)NO` [Example 17, (E)-3-{6-[(E)-3-(4-Benzyl-piperidin-1-yl)-3-oxo-propenyl]-pyridin-2-yl}-N-hydroxy-acrylamide hydrochloride], for which the IC50 with K562 cells, in the experiment with A549 cells and in the experiment with HCT-116 cells was 1 to 3 µM throughout.

For the molecule `O=C(/C=C/c1cccc(/C=C/C(=O)N2CCN(c3ccccc3Cl)CC2)n1)NO` [Example 18, (E)-3-(6-{(E)-3-[4-(2-Chloro-phenyl)-piperazin-1-yl]-3-oxo-propenyl}-pyridin-2-yl)-N-hydroxy-acrylamide hydrochloride], the half-maximal inhibitory concentration (IC50) was 1 to 3 µM in the experiment on K562 cells, 1 to 3 µM in the experiment with A549 cells and no more than 1 µM with HCT-116 cells.
